Assay results as given in ChEMBL document CHEMBL2016479, “Lead optimization of 4,4-biaryl piperidine amides as γ-secretase inhibitors” (Bioorg Med Chem Lett, 2012).
In brackets after ≈: the same amount, converted by molar mass.

What was measured:
[1] = target: Gamma-secretase; assay: Inhibition of gamma-secretase in human SH-SY5Y cells co-expressing APP C-terminal fragment SPA4CT assessed as inhibition of amyloid beta 40 production by electrochemiluminescent assay; format: cell-based
[2] = Plasma clearance in Sprague-Dawley rat at 0.05 mg/kg, iv; format: ADME, organism-based; parameters: dose 0.05 mg/kg, route intravenous
[3] = target: Gamma-secretase; assay: Inhibition of gamma-secretase in human SH-SY5Y cells co-expressing APP C-terminal fragment SPA4CT assessed as inhibition of amyloid beta 42 production by electrochemiluminescent assay; format: cell-based
[4] = Drug uptake in APP-YAC transgenic mouse brain at 100 mg/kg, po after 6 hrs; format: ADME, organism-based; parameters: dose 100 mg/kg, route oral; settings: read-out: Drug uptake
[5] = Drug uptake in APP-YAC transgenic mouse plasma at 100 mg/kg, po after 6 hrs; format: ADME, organism-based; parameters: dose 100 mg/kg, route oral
[6] = Solubility of the compound; format: physicochemical
[7] = Lipophilicity, log D of the compound; format: physicochemical; settings: octanol/water
[8] = tested on: Mus musculus; assay: Anti-Alzheimer's disease activity in APP-YAC transgenic mouse model assessed as reduction in amyloid beta 42 production at 100 mg/kg, po; format: functional
[9] = Volume of distribution at steady state in Sprague-Dawley rat at 0.05 mg/kg, iv; format: ADME, organism-based; parameters: dose 0.05 mg/kg, route intravenous; settings: in vivo, read-out: Vdss
[10] = (§1) AUC in Sprague-Dawley rat at 0.05 mg/kg, iv; format: ADME, organism-based, Plasma; parameters: dose 0.05 mg/kg, route intravenous; settings: Sprague-Dawley, plasma
[11] = Half life in Sprague-Dawley rat at 0.05 mg/kg, iv; format: ADME, organism-based; parameters: dose 0.05 mg/kg, route intravenous; settings: in vivo
[12] = Ratio of permeability from apical to basolateral side over basolateral to apical side in […] expressing human MDR1; format: ADME, cell-based
[13] = Apparent permeability of the compound; format: ADME; settings: not told
[14] = tested on: Rattus norvegicus; assay: as §1; format: ADME, organism-based, Plasma; parameters: dose 0.05 mg/kg, route intravenous; settings: in vivo

Structure (SMILES) | IC50 [1] [nM] | clearance [2] [mL/min/kg] | IC50 [3] [nM] | also measured
Cn1ccnc1C(=O)N1CCC(c2cc(F)ccc2F)(S(=O)(=O)c2ccc(Cl)cc2)CC1 | 200 | > 84 | 160 | –
O=C(CCC(F)(F)F)N1CCC(c2cc(F)ccc2F)(S(=O)(=O)c2ccc(Cl)cc2)CC1 | 400 | – | 420 | –
O=C(c1cnc(Cl)cc1C(F)(F)F)N1CCC(c2cc(F)ccc2F)(S(=O)(=O)c2ccc(Cl)cc2)CC1 | 1090 | – | 970 | –
O=C(c1cnc(Cl)nc1C(F)(F)F)N1CCC(c2cc(F)ccc2F)(S(=O)(=O)c2ccc(Cl)cc2)CC1 | > 10000 | – | > 10000 | –
O=C(N1CCC(c2cc(F)ccc2F)(S(=O)(=O)c2ccc(Cl)cc2)CC1)C1(C(F)(F)F)CCCC1 | 140 | > 84 | 110 | –
CC(C)(O)C(=O)N1CCC(c2cc(F)ccc2F)(S(=O)(=O)c2ccc(Cl)cc2)CC1 | 130 | 75.1 | 120 | –
O=C(N1CC[C@](c2cc(F)ccc2F)(S(=O)(=O)c2ccc(Cl)cc2)[C@@H](O)C1)C1(C(F)(F)F)CC1 (single isomer, unassigned; 11c) | 1790 | – | 2390 | –
CC1(C(=O)N2CCC(c3cc(F)ccc3F)(S(=O)(=O)c3ccc(Cl)cc3)CC2)COC1 | 880 | – | 640 | –
O=C(N1CCC(c2cc(F)ccc2F)(S(=O)(=O)c2ccc(Cl)cc2)CC1)C1(C(F)(F)F)CCCCC1 | 220 | – | 180 | –
COC(=O)C1(C(=O)N2CCC(c3cc(F)ccc3F)(S(=O)(=O)c3ccc(Cl)cc3)CC2)CC1 | 100 | > 84 | 50 | –
O=C(c1cnccc1C(F)(F)F)N1CCC(c2cc(F)ccc2F)(S(=O)(=O)c2ccc(Cl)cc2)CC1 | 130 | > 84 | 110 | –
Cn1nc(C(F)(F)F)c(C(=O)N2CCC(c3cc(F)ccc3F)(S(=O)(=O)c3ccc(Cl)cc3)CC2)c1Cl | 230 | 79 | 190 | –
COc1ccc2c(C(=O)N3CCC(c4cc(F)ccc4F)(S(=O)(=O)c4ccc(Cl)cc4)CC3)c[nH]c2c1 | 270 | > 84 | 80 | –
O=C(N1CC[C@](c2cc(F)ccc2F)(S(=O)(=O)c2ccc(Cl)cc2)[C@@H](O)C1)C1(C(F)(F)F)CC1 (racemic) | 250 | – | 190 | –
Cn1cc(C(=O)N2CCC(c3cc(F)ccc3F)(S(=O)(=O)c3ccc(Cl)cc3)CC2)c(C(F)(F)F)n1 | 160 | > 84 | 120 | concentration at 6 h [4]: 520 nM; concentration at 6 h [5]: 1780 nM; solubility [6]: 30.6 µM (≈ 16.8 µg/mL); logD [7]: 3.36; inhibition in vivo at 100 mg/kg [8]: 17%; Vd [9]: 11.3 L; AUC [10]: 0.23 µM·h; half-life [11]: 2.05 h; Ratio [12]: 1.8; Papp [13]: 30.7 ×10⁻⁶ cm/s
O=C(c1ccccc1C(F)(F)F)N1CCC(c2cc(F)ccc2F)(S(=O)(=O)c2ccc(Cl)cc2)CC1 | 260 | 31.9 | 210 | –
O=C(N1CC[C@](c2cc(F)ccc2F)(S(=O)(=O)c2ccc(Cl)cc2)[C@H](O)C1)C1(C(F)(F)F)CC1 (single isomer, unassigned; 12b) | 110 | – | 80 | –

Stronger by IC50 [1], values ahead:

IC50 [1] [nM] | clearance [2] [mL/min/kg] | IC50 [3] [nM] | Structure (SMILES) | also measured
10 | 5.7 | 10 | O=C(N1CC[C@](c2cc(F)ccc2F)(S(=O)(=O)c2ccc(Cl)cc2)[C@H](O)C1)C1(C(F)(F)F)CC1 (single isomer, unassigned; 12c) | –
40 | – | 40 | O=C(N1CC[C@](c2cc(F)ccc2F)(S(=O)(=O)c2ccc(Cl)cc2)[C@H](O)C1)C1(C(F)(F)F)CC1 (racemic) | concentration at 6 h [4]: 7060 nM; concentration at 6 h [5]: 11100 nM; solubility [6]: 174 µM (≈ 91.1 µg/mL); logD [7]: 3.27; inhibition in vivo at 100 mg/kg [8]: 76%; Vd [9]: 1.65 L; AUC [10]: 3.51 µM·h; half-life [11]: 1.6 h; Ratio [12]: 1.2; Papp [13]: 31.1 ×10⁻⁶ cm/s
70 | 80.5 | 50 | O=C(c1ncccc1C(F)(F)F)N1CCC(c2cc(F)ccc2F)(S(=O)(=O)c2ccc(Cl)cc2)CC1 | –
70 | > 84 | 50 | CC1(C(=O)N2CCC(c3cc(F)ccc3F)(S(=O)(=O)c3ccc(Cl)cc3)CC2)CC1 | –
80 | > 84 | 90 | O=C(CC(F)(F)F)N1CCC(c2cc(F)ccc2F)(S(=O)(=O)c2ccc(Cl)cc2)CC1 | –
90 | > 84 | 70 | COc1ccc2c(C(=O)N3CCC(c4cc(F)ccc4F)(S(=O)(=O)c4ccc(Cl)cc4)CC3)cn(C)c2c1 | –
90 | – | 90 | O=C(N1CC[C@](c2cc(F)ccc2F)(S(=O)(=O)c2ccc(Cl)cc2)[C@@H](O)C1)C1(C(F)(F)F)CC1 (single isomer, unassigned; 11b) | –
70 | 46.2 | 60 | O=C(N1CCC(c2cc(F)ccc2F)(S(=O)(=O)c2ccc(Cl)cc2)CC1)C1(C(F)(F)F)CCC1 | –
30 | – | 30 | O=C(N1CCC(c2cc(F)ccc2F)(S(=O)(=O)c2ccc(Cl)cc2)CC1)C1(C(F)(F)F)CC1 | concentration at 6 h [4]: 1180 nM; concentration at 6 h [5]: 650 nM; solubility [6]: 26.8 µM (≈ 13.6 µg/mL); logD [7]: 3.76; inhibition in vivo at 100 mg/kg [8]: 37%; Vd [9]: 3.1 L; AUC [14]: 1.19 µM·h; half-life [11]: 3.5 h; Ratio [12]: 0.9; Papp [13]: 37.3 ×10⁻⁶ cm/s
